PMC5578373, “Inhibitory Kappa B Kinase α (IKKα) Inhibitors That Recapitulate Their Selectivity in Cells against Isoform-Related Biomarkers” (Journal of Medicinal Chemistry, 2017)
Entries after “also recorded” stand apart in the source; their conditions may differ. Read-outs that look alike come from different tables or passages of the source.

Key:
[1] = tested on: IKKβ-dependent IκBα degradation in U2OS cells; test: TNFα-induced IκBα degradation in U2OS cells, Western blot; assay type: cell-based, human; conditions: highest concentration 100 μM, TNF-α (10 ng/mL) 30 min
Description: (§1) Two IKKβ-dependent readouts were selected to assess selectivity over IKKβ. First, TNFα stimulates IκBα degradation through activation of IKKβ and if IKKβ is inhibited, then a band corresponding to the IκBα protein should be evident by Western analysis. Second, IKKβ phosphorylates p65 on Ser536, which can also be assessed by Western blot analysis. Only at the highest concentration (100 μM) of 48 was IκBα degradation and p65 (Ser536) phosphorylation inhibited (Figure 9b). Even at this high concentration, these effects were not apparent following pretreatment with 47 (Figure 10b).
(§2) Figure 9 Effect of compound 48 on (a) FCS-stimulated noncanonical and (b) TNF-α-induced canonical NF-kB activation in U2OS cells. […] Whole cell lysate were prepared, separated by SDS-PAGE, and assessed for (a) inhibition of p100 phosphorylation (Ser866/870) and (b) IkB-α and p-p65 (Ser536) status. […]
as §2, with “10” for “9”, “47” for “48”
(§3) Whole cell lysates were prepared from U2OS and status of IκBα, p65, p-p65 (Ser536), and p-p100 (Ser 866/870) assessed by Western blotting as described in Mackenzie et al. (2007).[46]

[2] = tested on: IKKα-driven p100 phosphorylation in U2OS cells; test: FCS-stimulated p100 phosphorylation (Ser866/870) in U2OS cells, Western blot; assay type: cell-based, human; conditions: 1 h pretreatment, FCS (10%) for 4 h, blots quantified, read-out: IC50 for inhibition of p100 phosphorylation
Description: as §1
(§4) Figure 9 Effect of compound 48 on (a) FCS-stimulated noncanonical and (b) TNF-α-induced canonical NF-kB activation in U2OS cells. Cells were pretreated with 48 1 h prior to stimulation with FCS (10%) for 4 h or TNF-α (10 ng/mL) for 30 min. Whole cell lysate were prepared, separated by SDS-PAGE, and assessed for (a) inhibition of p100 phosphorylation (Ser866/870) and (b) IkB-α and p-p65 (Ser536) status. […] The results are representative of three independent experiments.
as §4, with “10” for “9”, “47” for “48”
(§5) U2OS cells were cultured with McCoy’s 5A modified medium and MEF were cultured with DEME medium containing 10% (v/v) FCS and medium was changed every 2 d thereafter until cells became confluent. Cells were incubated at 37 °C in humidified air with 5% CO2 and rendered quiescent by serum deprivation for 24 h prior to stimulation in serum-free medium.
as §3

TBK1(h) = target: T1, TBK1(h) (Homo sapiens, UniProt Q9UHD2); test: Millipore Kinase Profiler, single concentration; assay type: biochemical; conditions: duplicate assay points, read-out: % residual activity
T1 construct: purchased Millipore KinaseProfiler
Description: (§6) Kinase profiling of compound 48 was outsourced to Millipore, specifically the Kinase Profiler Customer Service for single concentration studies using duplicate assay points.

Fes(h) = target: T2, Fes(h) (Homo sapiens, UniProt P07332); test: Millipore Kinase Profiler, single concentration; assay type: biochemical; conditions: duplicate assay points, read-out: % residual activity
T2 construct: purchased Millipore KinaseProfiler
Description: as §6

ALK(h) = target: T3, ALK(h) (Homo sapiens, UniProt Q9UM73); test: Millipore Kinase Profiler, single concentration; assay type: biochemical; conditions: duplicate assay points, read-out: % residual activity
T3 construct: purchased Millipore KinaseProfiler
Description: as §6

CK2(h) = target: T4, CK2(h) (Homo sapiens, UniProt P68400); test: Millipore Kinase Profiler, single concentration; assay type: biochemical; conditions: duplicate assay points, read-out: % residual activity
T4 construct: purchased Millipore KinaseProfiler
T4 sequence (P68400 whole entry): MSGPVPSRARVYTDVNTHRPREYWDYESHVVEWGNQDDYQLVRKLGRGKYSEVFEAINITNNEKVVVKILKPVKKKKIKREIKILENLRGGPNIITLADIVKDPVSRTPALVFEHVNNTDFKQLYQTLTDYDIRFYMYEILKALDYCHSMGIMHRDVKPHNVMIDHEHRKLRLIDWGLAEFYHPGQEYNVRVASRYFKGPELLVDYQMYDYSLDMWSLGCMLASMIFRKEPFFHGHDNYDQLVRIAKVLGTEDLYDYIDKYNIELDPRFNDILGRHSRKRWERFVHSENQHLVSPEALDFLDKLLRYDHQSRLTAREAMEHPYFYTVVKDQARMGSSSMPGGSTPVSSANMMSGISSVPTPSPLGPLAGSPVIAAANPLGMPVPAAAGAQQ
T4 sequence (P67870 whole entry partner): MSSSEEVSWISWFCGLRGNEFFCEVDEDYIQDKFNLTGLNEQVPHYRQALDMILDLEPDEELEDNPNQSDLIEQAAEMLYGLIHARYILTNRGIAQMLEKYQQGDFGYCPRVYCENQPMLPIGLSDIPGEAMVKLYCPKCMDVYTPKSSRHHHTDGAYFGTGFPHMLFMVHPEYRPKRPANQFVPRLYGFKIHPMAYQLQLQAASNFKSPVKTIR
Description: as §6

HIPK1(h) = target: T5, HIPK1(h) (Homo sapiens, UniProt Q86Z02); test: Millipore Kinase Profiler, single concentration; assay type: biochemical; conditions: duplicate assay points, read-out: % residual activity
T5 construct: purchased Millipore KinaseProfiler
Description: as §6

CK1δ(h) = target: T6, CK1δ(h) (Homo sapiens, UniProt P48730); test: Millipore Kinase Profiler, single concentration; assay type: biochemical; conditions: duplicate assay points, read-out: % residual activity
T6 construct: purchased Millipore KinaseProfiler
Description: as §6

Abl(h) = target: T7, Abl(h) (Homo sapiens, UniProt P00519); test: Millipore Kinase Profiler, single concentration; assay type: biochemical; conditions: duplicate assay points, read-out: % residual activity
T7 construct: purchased Millipore KinaseProfiler
Description: as §6

CaMKI(h) = target: T8, CaMKI(h) (Homo sapiens, UniProt Q14012); test: Millipore Kinase Profiler, single concentration; assay type: biochemical; conditions: duplicate assay points, read-out: % residual activity
T8 construct: purchased Millipore KinaseProfiler
T8 sequence (Q14012 whole entry): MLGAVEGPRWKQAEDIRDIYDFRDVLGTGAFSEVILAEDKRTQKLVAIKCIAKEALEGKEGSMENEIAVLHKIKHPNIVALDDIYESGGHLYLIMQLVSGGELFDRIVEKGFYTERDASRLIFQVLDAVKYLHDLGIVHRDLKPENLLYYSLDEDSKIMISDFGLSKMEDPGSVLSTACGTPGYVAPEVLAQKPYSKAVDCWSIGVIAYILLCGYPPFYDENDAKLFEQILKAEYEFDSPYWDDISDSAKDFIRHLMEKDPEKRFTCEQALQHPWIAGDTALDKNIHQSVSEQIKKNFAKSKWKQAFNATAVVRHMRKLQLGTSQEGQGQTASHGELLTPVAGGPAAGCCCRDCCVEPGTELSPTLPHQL
Description: as §6

IR(h) = target: T9, IR(h) (Homo sapiens, UniProt P06213); test: Millipore Kinase Profiler, single concentration; assay type: biochemical; conditions: duplicate assay points, read-out: % residual activity
T9 construct: purchased Millipore KinaseProfiler
Description: as §6

PKCα(h) = target: T10, PKCα(h) (Homo sapiens, UniProt P17252); test: Millipore Kinase Profiler, single concentration; assay type: biochemical; conditions: duplicate assay points, read-out: % residual activity
T10 construct: purchased Millipore KinaseProfiler
Description: as §6

CHK2(h) = target: T11, CHK2(h) (Homo sapiens, UniProt O96017); test: Millipore Kinase Profiler, single concentration; assay type: biochemical; conditions: duplicate assay points, read-out: % residual activity
T11 construct: purchased Millipore KinaseProfiler
Description: as §6

Rsk1(h) = target: T12, Rsk1(h) (Homo sapiens, UniProt Q15418); test: Millipore Kinase Profiler, single concentration; assay type: biochemical; conditions: duplicate assay points, read-out: % residual activity
T12 construct: purchased Millipore KinaseProfiler
T12 sequence (Q15418 whole entry): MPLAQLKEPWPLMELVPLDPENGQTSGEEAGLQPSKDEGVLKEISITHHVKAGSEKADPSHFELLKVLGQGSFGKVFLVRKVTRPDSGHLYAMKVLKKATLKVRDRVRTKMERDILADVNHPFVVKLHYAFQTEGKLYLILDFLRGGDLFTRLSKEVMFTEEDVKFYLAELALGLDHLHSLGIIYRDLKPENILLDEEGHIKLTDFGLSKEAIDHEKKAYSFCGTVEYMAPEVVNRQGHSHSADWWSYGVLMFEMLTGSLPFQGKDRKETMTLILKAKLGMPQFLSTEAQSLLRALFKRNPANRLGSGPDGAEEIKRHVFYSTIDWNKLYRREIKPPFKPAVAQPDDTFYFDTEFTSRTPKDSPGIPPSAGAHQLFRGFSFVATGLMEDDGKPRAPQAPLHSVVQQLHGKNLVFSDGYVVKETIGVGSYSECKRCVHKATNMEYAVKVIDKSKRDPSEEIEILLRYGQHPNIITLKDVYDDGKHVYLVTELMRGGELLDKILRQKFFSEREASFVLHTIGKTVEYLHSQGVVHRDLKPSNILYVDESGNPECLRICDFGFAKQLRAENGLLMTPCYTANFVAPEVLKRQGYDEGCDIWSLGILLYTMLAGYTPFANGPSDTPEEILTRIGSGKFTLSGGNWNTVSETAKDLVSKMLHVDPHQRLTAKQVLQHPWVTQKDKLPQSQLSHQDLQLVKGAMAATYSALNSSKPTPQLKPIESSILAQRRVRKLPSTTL
Description: as §6

EGFR(h) = target: T13, EGFR(h) (Homo sapiens, UniProt P00533); test: Millipore Kinase Profiler, single concentration; assay type: biochemical; conditions: duplicate assay points, read-out: % residual activity
T13 construct: purchased Millipore KinaseProfiler
T13 sequence (P00533 25-1210): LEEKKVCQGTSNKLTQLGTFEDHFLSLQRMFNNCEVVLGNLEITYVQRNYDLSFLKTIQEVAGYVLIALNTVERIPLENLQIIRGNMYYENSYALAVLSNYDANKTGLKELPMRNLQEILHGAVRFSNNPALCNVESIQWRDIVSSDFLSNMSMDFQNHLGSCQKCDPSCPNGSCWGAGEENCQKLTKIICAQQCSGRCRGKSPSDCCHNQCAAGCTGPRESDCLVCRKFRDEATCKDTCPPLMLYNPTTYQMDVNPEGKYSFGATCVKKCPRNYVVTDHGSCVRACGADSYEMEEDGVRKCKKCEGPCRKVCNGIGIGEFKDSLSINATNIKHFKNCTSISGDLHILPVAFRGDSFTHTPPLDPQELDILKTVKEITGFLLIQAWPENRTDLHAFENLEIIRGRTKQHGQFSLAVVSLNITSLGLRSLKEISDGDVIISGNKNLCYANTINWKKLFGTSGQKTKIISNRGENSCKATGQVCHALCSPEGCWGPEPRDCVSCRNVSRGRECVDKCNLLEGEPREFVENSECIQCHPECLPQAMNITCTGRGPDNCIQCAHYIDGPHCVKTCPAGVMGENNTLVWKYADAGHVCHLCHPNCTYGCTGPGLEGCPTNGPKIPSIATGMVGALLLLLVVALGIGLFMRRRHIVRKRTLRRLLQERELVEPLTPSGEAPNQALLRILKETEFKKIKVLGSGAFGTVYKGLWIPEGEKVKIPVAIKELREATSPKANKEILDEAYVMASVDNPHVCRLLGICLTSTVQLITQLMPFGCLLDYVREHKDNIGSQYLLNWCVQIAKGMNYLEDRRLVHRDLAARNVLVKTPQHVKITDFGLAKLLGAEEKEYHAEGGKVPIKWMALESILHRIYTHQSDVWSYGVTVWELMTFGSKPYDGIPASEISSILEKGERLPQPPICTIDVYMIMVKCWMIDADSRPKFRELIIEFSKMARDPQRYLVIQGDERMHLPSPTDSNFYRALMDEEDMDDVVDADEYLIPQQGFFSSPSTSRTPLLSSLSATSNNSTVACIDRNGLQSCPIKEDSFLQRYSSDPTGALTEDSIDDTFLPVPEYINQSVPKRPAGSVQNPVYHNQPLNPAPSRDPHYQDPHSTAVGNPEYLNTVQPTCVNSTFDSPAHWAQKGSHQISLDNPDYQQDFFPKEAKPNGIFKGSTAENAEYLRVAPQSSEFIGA
Description: as §6

TrkB(h) = target: T14, TrkB(h) (Homo sapiens, UniProt Q16620); test: Millipore Kinase Profiler, single concentration; assay type: biochemical; conditions: duplicate assay points, read-out: % residual activity
T14 construct: purchased Millipore KinaseProfiler
T14 sequence (Q16620 32-822): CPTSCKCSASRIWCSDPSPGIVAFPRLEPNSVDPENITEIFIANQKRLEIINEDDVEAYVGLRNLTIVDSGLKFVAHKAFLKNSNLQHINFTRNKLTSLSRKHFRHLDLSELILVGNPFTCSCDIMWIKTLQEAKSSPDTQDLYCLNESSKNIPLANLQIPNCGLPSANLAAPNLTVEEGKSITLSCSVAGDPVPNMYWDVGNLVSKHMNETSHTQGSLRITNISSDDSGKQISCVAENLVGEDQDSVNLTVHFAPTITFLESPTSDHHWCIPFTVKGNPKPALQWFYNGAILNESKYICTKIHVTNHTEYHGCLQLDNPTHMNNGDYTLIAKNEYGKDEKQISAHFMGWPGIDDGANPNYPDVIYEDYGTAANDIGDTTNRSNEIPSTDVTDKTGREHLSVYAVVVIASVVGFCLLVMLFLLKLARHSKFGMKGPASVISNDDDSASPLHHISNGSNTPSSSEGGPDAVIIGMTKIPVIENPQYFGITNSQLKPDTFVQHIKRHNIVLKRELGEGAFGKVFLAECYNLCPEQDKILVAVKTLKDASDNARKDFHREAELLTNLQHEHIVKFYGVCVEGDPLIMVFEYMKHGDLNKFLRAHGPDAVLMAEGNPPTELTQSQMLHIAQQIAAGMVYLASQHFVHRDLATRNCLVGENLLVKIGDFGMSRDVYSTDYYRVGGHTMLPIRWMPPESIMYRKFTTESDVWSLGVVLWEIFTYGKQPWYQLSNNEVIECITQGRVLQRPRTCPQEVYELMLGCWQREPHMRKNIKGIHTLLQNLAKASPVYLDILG
Description: as §6

MST2(h) = target: T15, MST2(h) (Homo sapiens, UniProt Q13188); test: Millipore Kinase Profiler, single concentration; assay type: biochemical; conditions: duplicate assay points, read-out: % residual activity
T15 construct: purchased Millipore KinaseProfiler
T15 sequence (Q13188 whole entry): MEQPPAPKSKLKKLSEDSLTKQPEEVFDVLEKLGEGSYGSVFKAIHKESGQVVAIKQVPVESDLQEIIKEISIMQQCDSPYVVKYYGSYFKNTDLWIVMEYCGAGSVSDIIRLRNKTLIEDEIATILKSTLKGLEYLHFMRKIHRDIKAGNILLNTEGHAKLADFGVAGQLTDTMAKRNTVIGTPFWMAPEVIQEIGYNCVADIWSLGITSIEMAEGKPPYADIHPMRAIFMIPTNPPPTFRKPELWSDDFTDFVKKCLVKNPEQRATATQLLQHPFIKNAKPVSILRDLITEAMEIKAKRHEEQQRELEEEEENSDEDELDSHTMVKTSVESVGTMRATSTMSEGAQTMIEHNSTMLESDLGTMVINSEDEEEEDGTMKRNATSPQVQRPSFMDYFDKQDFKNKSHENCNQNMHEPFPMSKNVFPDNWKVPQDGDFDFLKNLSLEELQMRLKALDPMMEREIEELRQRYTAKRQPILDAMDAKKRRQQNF
Description: as §6

[3] = tested on: IKKα-regulated NF-κB transcriptional activation in IKKβ−/− MEFs; test: IL-1β-stimulated NF-κB-luciferase transcriptional activity in IKKβ knockout MEFs; assay type: cell-based, mouse; conditions: maximal concentrations of 50–100 μM
Description: To provide further evidence for cellular activity, mouse embryonic fibroblasts lacking the IKKβ kinase subunit were utilized to investigate the potency of both compounds against agonist-stimulated IKKα-regulated NF-κB transcriptional activation. Cells were infected with an adenovirus encoding an NF-κB-luciferase promoter gene. NF-κB transcriptional activity driven by IKKα was stimulated specifically using IL-1β,[41] and the ability of the compounds to inhibit this response was assessed. […] As IKKα plays a lesser role in the canonical NF-κB cascade,[42] particularly the rapid and transient stimulated degradation of IκBα, selective IKKα inhibitors should not affect TNF-α induced IκBα degradation and p65 phosphorylation.
as §5
An adenoviral vector encoding NFκB-luciferase (Adv.NFκB-Luc) was purchased from Vector Biolabs (University of Pennsylvania, Philadelphia, US). Large-scale production of high titer recombinant adenovirus was performed by routine methods.[47] IKKβ knockout mouse embryonic fibroblasts (MEFs; kindly provided by Prof. I. Verma, UCSD, USA) were counted when approximately 60–70% confluent in T75 cm^2 flasks and infected with adenovirus up to 300 pfu/cell^–1 for 24 h in 10% DMEM. Cells were then lifted from the flasks and plated into 96-well clear bottom, black luciferase plates and allowed to settle for 24 h before serum starved overnight. Cells were then stimulated with the appropriate agonists for the indicated times and reactions terminated by addition of lysis buffer containing 0.2 mM luciferin substrate. Relative light units (RLU) were measured using a Trilux microbeta counter (luminometer).

[4] = tested on: IKKβ-dependent p65 (Ser536) phosphorylation in U2OS cells; test: TNFα-induced p65 (Ser536) phosphorylation in U2OS cells, Western blot; assay type: cell-based, human; conditions: highest concentration 100 μM, TNF-α (10 ng/mL) 30 min
Description: as §1, §2
as §2, with “10” for “9”, “47” for “48”
as §3

N#Cc1c[nH]c2nc(N)nc(-c3ccc(S(N)(=O)=O)cc3)c12 [Compound 48, 4-(2-Amino-5-cyano-7H-pyrrolo[2,3-d]pyrimidin-4-yl)benzenesulfonamide]
inhibition of TNFα-stimulated IκBα degradation [1]: inhibited; also recorded: small effect
IC50 [2]: 5.8 µM
IC50 ([2]; Homo sapiens, U2OS): 8.8 µM
remaining activity at 10 µM (TBK1(h)): 54%
remaining activity at 10 µM (Fes(h)): 27%
remaining activity at 10 µM (ALK(h)): 84%
remaining activity at 10 µM (CK2(h)): 37%
remaining activity at 10 µM (HIPK1(h)): 90%
remaining activity at 10 µM (CK1δ(h)): 4%
remaining activity at 10 µM (Abl(h)): 69%
remaining activity at 10 µM (CaMKI(h)): 12%
remaining activity at 10 µM (IR(h)): 89%
remaining activity at 10 µM (PKCα(h)): 41%
remaining activity at 10 µM (CHK2(h)): 17%
remaining activity at 10 µM (Rsk1(h)): 39%
remaining activity at 10 µM (EGFR(h)): 108%
remaining activity at 10 µM (TrkB(h)): 31%
remaining activity at 10 µM (MST2(h)): 59%
effect on NF-κB transcriptional activity [3]: abolished transcriptional activity
% stim ([3]; Il-1β+DMSO = 100%): −40.9 ± 4.6%
inhibition of TNFα-stimulated p65 (Ser536) phosphorylation [4]: inhibited; also recorded: small effect
